Reference: patent US20240342186A1, “PYRIDINE DERIVATIVES WITH N-LINKED CYCLIC SUBSTITUENTS AS cGAS INHIBITORS” (Boehringer Ingelheim International GmbH, priority 2021, published 2024)
Where two headings read alike, the source gives them in different places.

Tests used:
[1] = biological target: cGAS (Homo sapiens (Human), UniProt Q8N884); experiment: Human cGAS enzyme assay (hcGAS IC50, in vitro), cGAMP formation by RapidFire MS; type: biochemical; conditions: biochemical (in vitro) cGAS inhibition;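 further: enzyme activated by 45 bp dsDNA with GTP and ATP (30 µM each), 60 min compound pre-incubation then 90 min reaction, cGAMP relative to cyclic-di-GMP internal standard, 8-point dilutions up to 10 µM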
[2] = system: cGAMP-stimulated THP1-Dual cells (pathway directly downstream of cGAS); experiment: cGAMP stimulated counter cell assay: inhibition of IFN induction in cGAMP-stimulated THP1 cells (THP1(cGAMP) IC50); type: cell-based, human; conditions: for IC50: read-out: THP1(cGAMP) IC50 (converted); for Ratio THP1(cGAMP) IC50 / THP1(vir) IC50: selectivity for cGAS inhibition
Description: (§1) 6.2 Method: Human cGAS Cell Assay and cGAMP Stimulated Counter Cell Assay (THP1(vir) IC50 and THP1(cGAMP) IC50)
(§2) THP1-Dual™ cells (InvivoGen #thpd-nfis) expressing IRF dependent Lucia luciferase reporter were used as basis for both assays. For the detection of cellular cGAS activity cells were stimulated by a baculovirus (pFastbac-1, Invitrogen, no coding insert) infection that delivers the cGAS enzyme stimulating double-stranded DNA (measurement of THP1(vir) IC50).
(§3) For the counter assay, cells were stimulated by cGAMP (SigmaAldrich #SML1232) to activate the identical pathway independent and directly downstream of cGAS (measurement of THP1(cGAMP) IC50). Pathway activity was monitored by measuring the Lucia luciferase activity induced by either DNA stimulated cGAS enzyme activity (measurement of THP1(vir) IC50) or by cGAMP directly (measurement of THP1(cGAMP) IC50, counter assay).
(§4) Compounds were delivered in 10 mM DMSO solution, serially diluted and transferred to the 384 well assay plate (Greiner #781201) using an Echo acoustic dispenser. Typically, 8 concentrations were used with the highest concentration at 10 μM in the final assay volume followed by ˜1:5 dilution steps. DMSO concentration was set to 1% in the final assay volume. The 384 well assay plate contained 21 test compounds (column 1-22), and DMSO in column 23 and 24.
(§5) Cells, cultivated according to manufacturer conditions, were harvested by centrifugation at 300 g/10 min and were then resuspended and diluted to 1.66E5 cells/ml in fresh cell culture medium (RPMI 1640 (Gibco #A10491-01), 10% FCS (Gibco #10500), 1× GlutaMax (Gibco #35050-061), 1× Pen/Strep solution (Gibco #15140-122), 100 μg/ml Normocin (InvivoGen #ant-nr), 100 μg/ml Zeocin (InvivoGen #ant-zn), 10 μg/ml Blasticidin S (Life Technologies #A11139-03)). The baculovirus solution was then added 1:200 (have varied according to virus batch) to the cells (measurement of THP1(vir) IC50).
(§6) 30 μL of the cell/virus-mix were added to each well of the compound plate from column 1-23 via MultiDrop Combi dispenser (5000 cells/well). In column 24, 30 μl/5000 cells/well without virus were added as a low control.
(§7) The plates were then incubated for 18 h at 37° C. in a humidified incubator.
(§8) Following that, 15 μl of QuantiLuc detection reagent (InvivoGen #rep-qlcg5) were added to each well using a MultiDrop Combi. Measurement was done immediately after the addition using an EnVision reader (US-luminescence read-mode).
(§9) For data evaluation and calculation, the measurement of the low control was set as 0% control and the measurement of the high control was set as 100% control. The IC50 values were calculated using the standard 4 parameter logistic regression formula. Calculation: [y=(a−d)/(1+(x/c)^b)+d], a=low value, d=high value; x=conc M; c=IC50 M; b=slope

[3] = system: cellular cGAS activity in dsDNA-stimulated human whole blood; experiment: Human whole blood assay (hWB IC50): IFNα2α production after dsDNA transfection; type: cell-based; conditions: inhibition of IFN induction in dsDNA-stimulated human whole blood
Method: 6.3 Method: Human Whole Blood Assay (Human WB IC50)
For the detection of cellular cGAS activity human whole blood was stimulated by transfection with double stranded DNA. Pathway activity was monitored by measuring the IFNα2α production.
Compounds were delivered as 10 mM DMSO solution and serially diluted and transferred to the 96-well cell culture plate (Corning #3595), prefilled with 20 μl OptiMEM (Gibco, #11058-021) in each well, using an Echo acoustic dispenser. Typically, 8 concentrations were used with the highest concentration at 10 µM in the final assay volume followed by ˜1:5 dilution steps. DMSO concentration was set to 0.1% in the final assay volume. The 96-well assay plate contained 10 test compounds, and DMSO in control wells.
Collection of human whole blood from 3 or more healthy donors (male or female, no medication for 7 days except contraceptive and thyroxine) as Na-Citrate blood (e.g. 3.8% in Monovettes from Sarstedt) was conducted in parallel. Whole blood was kept at room temperature for a maximum of 3 hours after collection until use in the assay.
160 μl of the whole blood samples was transferred to each well of the 96-well assay plates filled with compound/OptiMEM. All assay plates were prepared as duplicates with blood from different donors. Blood plates were kept at room temperature for 60 minutes and continuous shaking with 450 rpm, covered with the lid, but not sealed.
20 μl OptiMEM and 9.6:1 Fugene was added to all low control wells.
After covering assay plates with aera seals and the lid, blood plates were kept at room temperature for 30 minutes and continuous shaking with 450 rpm, followed by an overnight incubation of 22 h at 37° C. in the incubator, without shaking.
For the detection of IFNα-2α in human plasma, the biotinylated capture antibody (Antibody set IFNA2, Meso Scale Diagnostics #B21VH-3, including coating and capture antibody) was diluted 1:17.5 in Diluent 100 (Meso Scale Diagnostics #R^50AA-4), according to the manufacturer's directions. U-Plex MSD GOLD 96-well Small Spot Strepavidin SECTOR Plates (Meso Scale Diagnostics #L45SA-5) were coated with 25 μl diluted capture antibody. Coated plates were incubated for 60 min at room temperature under continuous shaking at 700 rpm. MSD IFNα-2α plates were washed three times with 150 μl wash buffer (1x HBSS, 0.05% Tween).
After blocking the plates with 100 μl block solution/well (1x HBSS with 0.2% Tween, 2% BSA) for 60 min at room temperature and continuous shaking at 700 rpm, plates were emptied as dry as possible by dumping just before continuing with the human plasma.
Whole Blood assay plates were centrifuged at 1600 rpm for 10 minutes. 25 μl of supernatant was transferred with a pipetting robot from each whole blood plate to the corresponding IFNα-2α plate. Plates were sealed with microplate seals and kept at room temperature again under continuous shaking at 700 rpm for two hours.
Next MSD IFNα-2α plates were washed three times with 150 μl wash buffer (1×HBSS, 0.05% Tween), before adding 25 μl MSD SULFO-TAG IFNα-2α Antibody solution (1:100 diluted in Diluent 3 (Meso Scale Diagnostics #R50AP-2) to each well of the plates.
Afterwards plates were sealed with microplate seals and kept at room temperature again under continuous shaking at 700 rpm for two hours. Finally, MSD IFNα-2α plates were washed three times with 150 μl wash buffer (1×HBSS, 0.05% Tween). 150 μl 2× Read buffer was added to each well and plates were immediately measured with the MSD Sector S600 Reader using the vendor barcode.
For data evaluation and calculation, % control calculation of each well was based on the mean of high (DNA stimulated control) and mean of low (unstimulated control) controls by using the following formula:
[counts(sample)−counts(low))/(counts(high)−counts(low))]*100
The IC50 values were calculated using the standard 4 parameter logistic regression formula. Calculation: [y=(a−d)/(1+(x/c)^b)+d], a=low value, d=high value; x=conc M; c=IC50 M; b=slope

[4] = system: cellular cGAS activity in baculovirus-stimulated THP1-Dual cells (IRF dependent Lucia luciferase reporter); experiment: Human cGAS cell assay: inhibition of IFN induction in virus-stimulated THP1 cells (THP1(vir) IC50); type: cell-based
Description: as §1, §2, §3, §4, §5, §6, §7, §8, §9

[5] = Homo sapiens, THP1-Dual, inhibition of IFN induction in cGAMP-stimulated THP1 cells
[6] = Homo sapiens, THP1-Dual, inhibition of IFN induction in virus-stimulated THP1 cells, read-out: THP1(vir) IC50

Chain of cGAS (Q8N884 whole entry): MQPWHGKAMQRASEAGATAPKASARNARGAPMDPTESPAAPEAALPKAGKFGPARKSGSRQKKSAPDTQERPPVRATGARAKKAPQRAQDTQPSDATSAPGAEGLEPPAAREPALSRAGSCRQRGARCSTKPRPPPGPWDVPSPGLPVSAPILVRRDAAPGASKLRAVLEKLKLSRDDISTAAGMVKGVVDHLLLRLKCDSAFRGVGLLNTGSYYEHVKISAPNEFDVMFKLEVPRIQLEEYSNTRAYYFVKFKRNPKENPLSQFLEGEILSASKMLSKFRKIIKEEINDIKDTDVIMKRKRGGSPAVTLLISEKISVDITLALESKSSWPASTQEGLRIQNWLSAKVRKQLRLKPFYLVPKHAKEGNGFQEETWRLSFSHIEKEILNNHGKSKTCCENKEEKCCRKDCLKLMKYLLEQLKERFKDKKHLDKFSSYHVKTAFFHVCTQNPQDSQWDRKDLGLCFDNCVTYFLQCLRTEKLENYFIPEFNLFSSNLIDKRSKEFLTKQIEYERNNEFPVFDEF

Row | IC50 [1] | IC50 [3] | IC50 [4, 6] | Compound | IC50 [2, 5] | Ratio THP1(cGAMP) IC50 / THP1(vir) IC50 [2] | IC50 ([2]; inhibition of IFN induction in cGAMP-stimulated THP1 cells) | IC50 ([4]; inhibition of IFN induction in virus-stimulated THP1 cells, read-out: THP1(vir) IC50) | IC50 ([2]; cGAMP-stimulated THP1 cells, counter assay) | IC50 ([4]; Homo sapiens, THP1-Dual, read-out: THP1(vir) IC50, inhibition of IFN induction in virus-stimulated THP1 cells) | IC50 ([4]; Homo sapiens, THP1-Dual, read-out: THP1(vir) IC50, virus-stimulated THP1 cells, IFN induction)
1 | 9 nM | 35 nM | 10 nM | C[C@@H]1N(c2cc(-c3cnn(C)n3)cnc2O[C@H]2C[C@@H](C(=O)O)N(c3nc(C(F)(F)F)nc4c3oc3ccccc34)C2)CCOC12COC2 [Example 7.05] | 13200 nM | 1292 | – | – | – | – | –
2 | 10 nM | 25 nM | < 5 nM | CC#Cc1cnc(O[C@H]2C[C@@H](C(=O)O)N(c3nc(C(F)(F)F)nc4c3oc3ccccc34)C2)c(N2CCOC3(COC3)[C@@H]2C)c1 [Example 6.01] | 20500 nM | 3801 | – | – | – | – | –
3 | 14 nM | 13 nM | 1 nM | COc1csc(-c2cnc(O[C@H]3C[C@@H](C(=O)O)N(c4nc(C(F)(F)F)nc5c4oc4ccccc45)C3)c(N3CCOC4(COC4)[C@@H]3C)c2)n1 [Example 7.02] | 8320 nM | 7533 | – | – | – | – | –
4 | 12 nM | 22 nM | 2 nM | Cc1cnc(-c2cnc(O[C@H]3C[C@@H](C(=O)O)N(c4nc(C(F)(F)F)nc5c4oc4ccccc45)C3)c(N3CCOC4(COC4)[C@@H]3C)c2)cn1 [Example 7.04] | > 10000 nM | 4084 | – | – | – | – | –

Second part, the compound before the results:

Row | Compound | IC50 [1] | IC50 [3] | IC50 [4, 6] | IC50 [2, 5] | Ratio THP1(cGAMP) IC50 / THP1(vir) IC50 [2] | IC50 ([2]; inhibition of IFN induction in cGAMP-stimulated THP1 cells) | IC50 ([4]; inhibition of IFN induction in virus-stimulated THP1 cells, read-out: THP1(vir) IC50) | IC50 ([2]; cGAMP-stimulated THP1 cells, counter assay) | IC50 ([4]; Homo sapiens, THP1-Dual, read-out: THP1(vir) IC50, inhibition of IFN induction in virus-stimulated THP1 cells) | IC50 ([4]; Homo sapiens, THP1-Dual, read-out: THP1(vir) IC50, virus-stimulated THP1 cells, IFN induction)
5 | COc1cc(-c2cnc(O[C@H]3C[C@@H](C(=O)O)N(c4nc(C(F)F)nc5c4oc4ccccc45)C3)c(N3CCOC4(COC4)[C@@H]3C)c2)c(F)cn1 [Example 3.32] | 9 nM | 17 nM | 2 nM | 12900 nM | 5194 | – | – | – | – | –
6 | (2S,4S)-4-({3-[(95)-9-Methyl-2,5-dioxa-8-azaspiro[3.5]nonan-8-yl]-5-(pyrimidin-5-yl)pyridin-2-yl}oxy)-1-[4-(trifluoromethyl)-8-oxa-3,5-diazatricyclo[7.4.0.0^2,7]trideca-1(9),2(7),3,5,10,12-hexaen-6-yl]pyrrolidine-2-carboxylic acid [Example 7.01] | 14 nM | 50 nM | – | – | 1700 | 9260 nM | 5 nM | – | – | –
7 | C#Cc1cnc(O[C@H]2C[C@@H](C(=O)O)N(c3nc(C)nc4c3oc3cc(Cl)ccc34)C2)c(N2CCOC3(COC3)[C@@H]2C)c1 [Example 2.07] | 3 nM | 28 nM | 14 nM | 14500 nM | 1005 | – | – | – | – | –
8 | C[C@H]1COCCN1c1cc(Cl)cnc1O[C@H]1C[C@@H](C(=O)O)N(c2nc(C(F)F)nc3c2oc2ccccc23)C1 [Example 1.27] | 4 nM | 221 nM | 516 nM | > 16600 nM | >32 | – | – | – | – | –
9 | C[C@@H]1N(c2cc(Cl)cnc2O[C@H]2C[C@@H](C(=O)O)N(c3nc(C(F)F)nc4c3oc3ccccc34)C2)CCCC12COC2 [Example 1.21] | 4 nM | 46 nM | 85 nM | 14800 nM | 175 | – | – | – | – | –
10 | C[C@@H]1N(c2cccnc2O[C@H]2C[C@@H](C(=O)O)N(c3nc(C(F)F)nc4c3oc3ccccc34)C2)CCOC12COC2 [Example 4.04, (2S,4S)-4-({3-[(9S)-9-methyl-2,5-dioxa-8-azaspiro[3.5]nonan-8-y]-pyridin-2-yl}-oxy)1-[4-(difluoro-methyl)-8-oxa-3,5-diazatricyclo[7.4.0.0^2.7]trideca-1(13),2,4,6,9,11-hexaen-6-yl]pyrrolidine-2-carboxylic acid] | 2 nM | 77 nM | – | > 16600 nM | >43 | – | – | > 16600 nM | 386 nM | 386 nM
11 | C[C@H]1COCCN1c1cc(-c2cnn(C)c2)cnc1O[C@H]1C[C@@H](C(=O)O)N(c2nc(C(F)(F)F)nc3c2oc2ccccc23)C1 [Example 3.06] | 9 nM | 1990 nM | 525 nM | 21400 nM | 41 | – | – | – | – | –
12 | C[C@@H]1N(c2cc(-c3cnn(C(F)F)c3)cnc2O[C@H]2C[C@@H](C(=O)O)N(c3nc(C(F)(F)F)nc4c3oc3ccccc34)C2)CCOC12COC2 [Example 3.31] | 11 nM | 28 nM | 3 nM | 10900 nM | 4120 | – | – | – | – | –
13 | CCn1cc(-c2cnc(O[C@H]3C[C@@H](C(=O)O)N(c4nc(C(F)(F)F)nc5c4oc4ccccc45)C3)c(N3CCOC[C@@H]3C)c2)cn1 [Example 3.07] | 17 nM | 1620 nM | 748 nM | 12300 nM | 16 | – | – | – | – | –
